In patent publication US8378104B2 (OSI Pharmaceuticals, LLC, priority 2010, dated 2013) one finds IC50 data, which are given here for 32 compounds.

Structures can show the parent of a compound that is named as a salt.

For the first assay, the target named is T1, TAK1-TAB1 fusion protein (Homo sapiens, UniProt O43318).
T1 construct: purchased Carna
T1 sequence (O43318 with tags, fused parts or gaps limits assumed): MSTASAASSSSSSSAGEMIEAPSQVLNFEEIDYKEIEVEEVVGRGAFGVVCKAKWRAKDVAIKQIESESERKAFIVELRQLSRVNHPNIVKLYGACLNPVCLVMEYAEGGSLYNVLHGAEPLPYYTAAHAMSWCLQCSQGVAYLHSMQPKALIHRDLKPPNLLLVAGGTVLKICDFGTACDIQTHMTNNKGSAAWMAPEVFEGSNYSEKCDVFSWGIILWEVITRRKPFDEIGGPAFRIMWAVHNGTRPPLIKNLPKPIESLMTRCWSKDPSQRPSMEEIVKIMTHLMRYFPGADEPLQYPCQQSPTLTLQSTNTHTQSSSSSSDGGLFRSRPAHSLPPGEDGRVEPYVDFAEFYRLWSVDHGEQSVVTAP
Description: TAK1 biochemical assay (AlphaScreen, GST-MAP2K7 substrate).
Conditions: not given
The IC50 is the concentration that inhibits the measured activity by half. As for `Cc1c(-c2cnc(N)c3oc(-c4csc5cnccc45)cc23)cnn1C` [Example 292, 4-(1,5-dimethyl-1H-pyrazol-4-yl)-2-thieno[2,3-c]pyridin-3-yl-furo[2,3-c]pyridin-7-ylamine], the half-maximal inhibitory concentration (IC50) was in the range of 1 to 10 µM.

Still in this assay, the particulars now being: TAK1-TAB1 fusion protein, GST-MAP2K7 substrate; read-out: mean TAK1 IC50 (Col. A).
As for `Nc1ncc(-c2cnn([C@H]3CC[C@H](O)CC3)c2)c2cc(-c3c(-c4ccccc4)sc4cnccc34)oc12` [Example 269, trans-4-{4-[7-amino-2-(2-phenylthieno[2,3-c]pyridin-3-yl)furo[2,3-c]pyridin-4-yl]-1H-pyrazol-1-yl}cyclohexanol trifluoroacetate], the IC50 lay within 1 to 10 µM.
Take `Nc1ncc(-c2cnn(C3CC=CC3)c2)c2cc(-c3cccc4cnccc34)oc12` [Example 72, 4-[1-(cyclopent-3-en-1-yl)-1H-pyrazol-4-yl]-2-(isoquinolin-5-yl)furo[2,3-c]pyridin-7-amine]: the half-inhibitory concentration (IC50) was in the range of 0.1 to 1 µM.
Consider `Cc1nc(C)c(-c2cnc(N)c3oc(-c4csc5cnccc45)cc23)s1` [Example 394, 4-(2,4-dimethyl-thiazol-5-yl)-2-thieno[2,3-c]pyridin-3-yl-furo[2,3-c]pyridin-7-ylamine], for which the IC50 was in the range of 1 to 10 µM.
For `CC(=O)N1CCC(n2cc(-c3cnc(N)c4oc(-c5csc6cn(C)c(=O)cc56)cc34)cn2)CC1` [Example 244, 3-{4-[1-(1-acetylpiperidin-4-yl)-1H-pyrazol-4-yl]-7-aminofuro[2,3-c]pyridin-2-yl}-6-methylthieno[2,3-c]pyridin-5(6H)-one trifluoroacetate], the half-inhibitory concentration (IC50) was in the range of 1 to 10 µM.
On the same count and under the same terms, in the case of `Nc1ccc(-c2cc3c(-c4cnn(C5CCNCC5)c4)cnc(N)c3o2)cn1` [Example 20, 2-(6-aminopyridin-3-yl)-4-[1-(piperidin-4-yl)-1H-pyrazol-4-yl]furo[2,3-c]pyridine-7-amine] it was 1 to 10 µM.
Still for that read-out and setting: then `Nc1ncc(-c2cnn(C3CCN(C(=O)CCC4CCCCC4)CC3)c2)c2cc(-c3csc4cnccc34)oc12` [Example 334, 1-{4-[4-(7-amino-2-thieno[2,3-c]pyridin-3-yl-furo[2,3-c]pyridin-4-yl)-pyrazol-1-yl]-piperidin-1-yl}-3-cyclohexyl-propan-1-one], with 1 to 10 µM; and `CC(=O)N1CCC(n2cc(-c3cnc(N)c4oc(C5=CCCC5)cc34)cn2)CC1` [Example 153, 1-(4-{4-[7-amino-2-(cyclopent-1-en-1-yl)furo[2,3-c]pyridin-4-yl]-1H-pyrazol-1-yl}piperidin-1-yl)ethanone], with 1 to 10 µM.
Regarding `Nc1ncc(-c2cnn(C3CCNCC3)c2)c2cc(-c3ccsc3)oc12` [Example 28, 4-[1-(piperidin-4-yl)-1H-pyrazol-4-yl]-2-(thiophen-3-yl)furo[2,3-c]pyridine-7-amine], the IC50 was in the range of 1 to 10 µM.
Same read-out and setting: in the case of `CC(=O)N1CCC(n2cc(-c3cnc(N)c4oc(C5CCCC5)cc34)cn2)CC1` [Example 198, 1-{4-[4-(7-amino-2-cyclopentylfuro[2,3-c]pyridin-4-yl)-1H-pyrazol-1-yl]piperidin-1-yl}ethanone] it was 1 to 10 µM.
Turning to `CC(=O)N1CCC(n2cc(-c3cnc(N)c4oc(-c5coc6ccccc56)cc34)cn2)CC1` [Example 220, 1-(4-{4-[7-amino-2-(1-benzofuran-3-yl)furo[2,3-c]pyridin-4-yl]-1H-pyrazol-1-yl}piperidin-1-yl)ethanone bis(trifluoroacetate)], the IC50 is 1 to 10 µM.
The same measure, in the same setting: in the case of `Nc1ncc(-c2cnn(C3CCNCC3)c2)c2cc(-c3cccc(C(F)(F)F)c3)oc12` [Example 6, 4-[1-(piperidin-4-yl)-1H-pyrazol-4-yl]-2-[3-(trifluoromethyl)phenyl]furo[2,3-c]pyridin-7-amine] it was 1 to 10 µM; in that of `C[C@]1(O)CC[C@H](n2cc(-c3cnc(N)c4oc(-c5cccc6cnccc56)cc34)cn2)CC1` [Example 75, trans-4-{4-[7-amino-2-(isoquinolin-5-yl)furo[2,3-c]pyridin-4-yl]-1H-pyrazol-1-yl}-1-methylcyclohexanol], 0.1 to 1 µM.
On to `CC(=O)N1CCC(n2cc(-c3cnc(N)c4oc(-c5ccc(N6CCCCC6)nc5)cc34)cn2)CC1` [Example 118, 1-[4-(4-{7-amino-2-[6-(piperidin-1-yl)pyridin-3-yl]furo[2,3-c]pyridin-4-yl}-1H-pyrazol-1-yl)piperidin-1-yl]ethanone], for which the IC50 was greater than 10 µM.
As for `CC(=O)N1CCC(n2cc(-c3cnc(N)c4oc(-c5csc6cncc(Cl)c56)cc34)cn2)CC1` [Example 255], the IC50 was in the range of 1 to 10 µM.
As for `Cc1ccc(-c2cnc(N)c3oc(-c4csc5cnccc45)cc23)o1` [Example 387, 4-(5-methylfuran-2-yl)-2-(thieno[2,3-c]pyridin-3-yl)furo[2,3-c[pyridin-7-amine trifluoroacetate], the half-inhibitory concentration (IC50) was in the range of 1 to 10 µM.
Regarding `Nc1ncc(-c2cnn(C3CCNCC3)c2)c2cc(-c3cc(F)cc(C(F)(F)F)c3)oc12` [Example 7, 2-[3-fluoro-5-(trifluoromethyl)phenyl]-4-[1-(piperidin-4-yl)-1H-pyrazol-4-yl]furo[2,3-c]pyridin-7-amine], the half-inhibitory concentration (IC50) lay within 1 to 10 µM.
As to `Nc1ncc(-c2cnn(C3CCNCC3)c2)c2cc(-c3cccc4c3sc3ccccc34)oc12` [Example 37, 2-(dibenzo[b,d]thiophen-4-yl)-4-[1-(piperidin-4-yl)-1H-pyrazol-4-yl]furo[2,3-c]pyridine-7-amine], the IC50 is 0.1 to 1 µM.
On to `CC(=O)N1CCC(n2cc(-c3cnc(N)c4oc(-c5cccc(OCC(C)C)c5)cc34)cn2)CC1` [Example 204, 1-[4-(4-{7-amino-2-[3-(2-methylpropoxy)phenyl]furo[2,3-c]pyridin-4-yl}-1H-pyrazol-1-yl)piperidin-1-yl]ethanone], for which the IC50 is greater than 10 µM.
Same read-out and setting: then `Nc1ncc(-c2cnn([C@H]3CC[C@H](O)CC3)c2)c2cc(-c3c(-c4cccc(F)c4)ccc4cnsc34)oc12` [Example 356, trans-4-(4-{7-amino-2-[6-(3-fluorophenyl)-1,2-benzothiazol-7-yl]furo[2,3-c]pyridin-4-yl}-1H-pyrazol-1-yl)cyclohexanol], with greater than 10 µM; and `Cn1cnc2cc(-c3oc4c(N)ncc(-c5cnn(C6CCNCC6)c5)c4c3Cl)cnc21` [Example 15, 3-chloro-2-(3-methyl-3H-imidazo[4,5-b]pyridine-6-yl)-4-[1-(piperidin-4-yl)-1H-pyrazol-4-yl]furo[2,3-c]pyridin-7-amine hydrochloride], with 1 to 10 µM; and `Nc1ncc(-c2cnn(C3CCNCC3)c2)c2cc(-c3csc4ccccc34)oc12` [Example 19, 2-(1-benzothiophen-3-yl)-4-[1-(piperidin-4-yl)-1H-pyrazol-4-yl]furo[2,3-c]pyridine-7-amine], with 1 to 10 µM.
Consider `Nc1ncc(-c2cnn(C3CCNCC3)c2)c2c(Cl)c(-c3cccc4cnccc34)oc12` [Example 16, 3-chloro-2-(isoquinoolin-5-yl)-4-[1-(piperidin-4-yl)-1H-pyrazol-4-yl]furo[2,3-c]pyridin-7-amine], for which the IC50 lay in the range of 1 to 10 µM.
Still for that read-out and setting: in the case of `CC(=O)c1ccccc1-c1cc2c(-c3cnn(C4CCN(C(C)=O)CC4)c3)cnc(N)c2o1` [Example 193, 1-(4-{4-[2-(2-acetylphenyl)-7-aminofuro[2,3-c]pyridin-4-yl]-1H-pyrazol-1-yl}piperidin-1-yl)ethanone] it was 1 to 10 µM; in that of `Nc1ncc(-c2cnn(C3CCNCC3)c2)c2cc(-c3cccc4c3oc3ccccc34)oc12` [Example 36, 2-(dibenzo[b,d]furan-4-yl)-4-[1-(piperidin-4-yl)-1H-pyrazol-4-yl]furo[2,3-c]pyridine-7-amine], 0.1 to 1 µM.
Consider `CC(=O)N1CCC(n2cc(-c3cnc(N)c4oc(-c5cccc(OCC(F)(F)F)c5)cc34)cn2)CC1` [Example 187, 1-[4-(4-{7-amino-2-[3-(2,2,2-trifluoroethoxy)phenyl]furo[2,3-c]pyridin-4-yl}-1H-pyrazol-1-yl)piperidin-1-yl]ethanone], for which the IC50 was 1 to 10 µM.
`Nc1ncc(-c2cnn(C3CCNCC3)c2)c2cc(-c3ccccc3)oc12` [Example 2, 2-phenyl-4-[1-(piperidin-4-yl)-1H-pyrazol-4-yl]furo[2,3-c]pyridin-7-amine]: the half-maximal inhibitory concentration (IC50) fell in the range of 1 to 10 µM.
Same read-out and setting: then `CCOC(=O)COc1cccc(-c2cc3c(-c4cnn(C5CCN(C(C)=O)CC5)c4)cnc(N)c3o2)c1` [Example 211, ethyl (3-{4-[1-(1-acetylpiperidin-4-yl)-1H-pyrazol-4-yl]-7-aminofuro[2,3-c]pyridin-2-yl}phenoxy)acetate], with greater than 10 µM.
On the same count and under the same terms, in the case of `COC(=O)c1cc(-c2cnc(N)c3oc(-c4csc5cnccc45)cc23)cs1` [Example 378, 4-(7-amino-2-thieno[2,3-c]pyridin-3-yl-furo[2,3-c]pyridin-4-yl)-thiophene-2-carboxylic acid methyl ester] it was greater than 10 µM; in that of `CC(=O)N1CCC(n2cc(-c3cnc(N)c4oc(-c5cccc(Oc6ccccc6)c5)cc34)cn2)CC1` [Example 186, 1-(4-{4-[7-amino-2-(3-phenoxyphenyl)furo[2,3-c]pyridin-4-yl]-1H-pyrazol-1-yl}piperidin-1-yl)ethanone], greater than 10 µM; in that of `COC(=O)c1ccc(-c2cnc(N)c3oc(-c4csc5cnccc45)cc23)s1` [Example 382, 5-(7-amino-2-thieno[2,3-c]pyridin-3-yl-furo[2,3-c]pyridin-4-yl)-thiophene-2-carboxylic acid methyl ester], greater than 10 µM.
`CC(=O)N1CCC(n2cc(-c3cnc(N)c4oc(-c5cccc(OCCC(C)C)c5)cc34)cn2)CC1` [Example 208, 1-[4-(4-{7-amino-2-[3-(3-methylbutoxy)phenyl]furo[2,3-c]pyridin-4-yl}-1H-pyrazol-1-yl)piperidin-1-yl]ethanone]: the IC50 is greater than 10 µM.
